Laboratory results reported in patent publication US20050124618A1, “Methods of modulating angiogenesis and cancer cell proliferation” (priority 2003, published 2005).

Experiments:
VEGF = assay: Western blot of VEGF protein expression in TA muscle; assay type: in vivo, rat
Experimental: Western blot analysis to detect the presence of VEGF protein: The 100-mg TA muscle specimens were homogenized, and the protein was suspended in potassium buffer (10 mM). Five micrograms of protein (as determined by a protein assay kit, Bio-Rad; Hercules, Calif.) from the TA and a tumor cell line known to express VEGF at high levels (C6, American Type Culture Collection, 107-CCL) were separated on a 12% denaturing polyacrylamide gel. The gels were transferred to a nitrocellulose membrane, which was blocked overnight in 5% nonfat dry milk diluted in Tris-buffered saline (50 mM Tris and 750 mM NaCl, pH 8) with 0.08% Tween 20 (Bio-Rad). The blots were then incubated with a […] antibody to a peptide derived from the human VEGF sequence (1:1,000 dilution, clone G143-850, Pharmingen) for 2 h at room temperature. Washed blots were then incubated with goat anti-mouse secondary antibody at a dilution of 1:1,000 for 1 h at room temperature and then subjected to a SuperSignal West Dura chemiluminescence substrate (Pierce; Rockford, Ill.) detection system. Membranes were exposed to X-ray film (Fuji Medical; Stamford, Conn.) for 15 to 30 s and developed using a Kodak M35 X-Omat processor. For the quantitative VEGF analysis, film was always exposed for a period of time that ensured that all signals were within the linear range of the detection of the film. The VEGF band intensity was quantified using a morphometry imaging system (Metamorph, Universal Imaging; West Chester, Pa.), and values are expressed as a percentage of the C6 tumor cell standard.

SAPK/JNK = assay: Western blot of phospho-SAPK/JNK in U251 cells; assay type: cell-based, human; conditions: 10 μM HET0016, 24 and 48 hr
Experimental: They were then pelleted by centrifugation at 1,000 g for 5 min at 4° C. Cells were lysed by adding RIPA buffer [20 mM HEPES (pH 7.4), 100 mM NaCl, 1% Nonidet P-40, 0.1% SDS, 1% deoxycholic acid, 10% glycerol, 1 mM EDTA, 1 mM NaVO3, 50 mM NaF, and Protease Inhibitors Set 1 (Calbiochem, La Jolla, Calif.)]. Plates were then scraped and cells collected in a 1.5-ml centrifuge tube, followed by incubation on ice for 30 min. Homogenates of the cell suspension were centrifuged for 10 min at 14,000 g and 4° C.; the pellets were discarded and protein concentrations in the supernatant determined by bicinchoninic acid (BCA) protein assay.
Typically, 20 μg of protein was separated on a 14% Tris-glycine gel (Invitrogen) and electroblotted on a PVDF membrane (Biotrace, Bothell, Wash.). Membranes were blocked for 1 h at room temperature with blocking buffer [0.2% I-Block reagent (Tropix, Bedford, Mass.), 0.1% Tween-20 in […]] before incubation with primary antibodies in blocking buffer (overnight at 4° C.). […] Both phospho-tyrosine (Y102) and phospho-serine/threonine-Pro MPM2 were detected using a 1:2000 dilution of the corresponding antibodies, whereas phospho-p44/p42MAPK and phospho-SAPK/JNK were detected using 1:1000 antibody dilutions. […]

20-HETE = assay: Urinary excretion of 20-HETE in rats (fluorescent HPLC assay); assay type: in vivo, rat; conditions: chronic treatment with HET0016 for 7 days, 1 mg/kg ip twice daily
Source text: The rats were divided in four groups. […] This dose was chosen based on our previous results (Kehl F et al., Am J Physiol Heart Circ Physiol 282: H1556-H1565, 2002).
Measurement of urinary excretion of 20-HETE: On the last day of electrical stimulation, rats were placed in a metabolic cage that efficiently separates urine from food. Just before the start of the urine collection, food was withdrawn to avoid contamination of the urine sample, and the 24-h control and treated urine samples were collected into a glass bottle packed with ice. The concentration of 20-HETE in the urine samples was measured using a fluorescent HPLC assay, as previously described (Maier K G et al., Am J Physiol Heart Circ Physiol 279: H863-H871, 2000). […] Excess dye was removed using Sep-Pak Vac extraction (Maier K G et al., Am J Physiol Heart Circ Physiol 279: H863-H871, 2000), and the samples were dried under argon, resuspended in 100 μl of methanol, and analyzed by reverse-phase HPLC (Waters) using a fluorescence detector (model number L-7480; Hitachi, Naperville, Ill.). The amount of 20-HETE in the sample was determined by comparing the area of the 20-HETE peak with that of the internal standard.

For `CCCCc1ccc(N=CNO)c(C)c1` [HET0016, N-hydroxy-N′-(4-butyl-2 methylphenyl) formamidine], the “effect on increases in VEGF protein expression induced by electrical stimulation” value (VEGF; 7 days stimulation) was “did not block”, the “effect on baseline VEGF expression” value (VEGF; 7 days treatment) was “Neither HET0016 nor ABT had any effect” and the “phosphorylation of SAPK/JNK” value (SAPK/JNK) was “specifically inhibited phosphorylation”. For the same compound, the “reduction of 24-h urinary 20-HETE excretion compared with the control group (lecithin)” value (20-HETE) was 36%.
